Laboratory results reported in US8293790B2, “Pharmaceutical compositions comprising DGLA and benzoyl peroxide and methods of use thereof” (Dignity Sciences Limited, priority 2011, dated 2012).
≈ marks a conversion by molar mass, not a printed value. Like-named read-outs stand apart in the source and are kept apart here. Marks after values point to notes of the source that are not given here. One block for each compound: values may come before it.

Assays:
[1] = system: P. acnes; experiment: Agar dilution method: growth of P. acnes and MIC, compounds tested singly; assay type: cell-based, Propionibacterium acnes; design: key to Growth Index (+++, ++, +, −) Plate 1 / Growth Index (+++, ++, +, −) Plate 2 / Growth Index (+++, ++, +, −) Plate 3 / Growth Index (+++, ++, +, −) Avg: +++: confluent growth (comparable to control); ++: less confluent growth; +: marked reduction in growth to multiple tiny, single colonies; −: no growth present; MIC: unit: mg/mL; conditions: for MIC: compound alone
Method: (§1) Several compounds including fatty acids such as DGLA, 15-OHEPA, and 15-HETrE were tested to determine their capacity to inhibit the growth of P. acnes. In an exemplary method, an agar dilution method was used to determine the minimum inhibitory concentration (MIC) of each tested compound. Briefly, the agar dilution method involved preparing a series of concentrations of each compound (e.g., nicotinamide, benzoyl peroxide, adapalene, metronidazole, DGLA, 15-OHEPA, and 15-HETrE) in a Reinforced Clostridial Agar (RCA) media that facilitates growth of P. acnes under anaerobic conditions. An inoculum of P. acnes was prepared by incubation of P. acnes for approximately seven days at 35-37° C. to achieve a ≧1.0 OD600 inoculum of P. acnes in RCM broth. A portion of this inoculum was then added to the surface of each plate as a 10 μL spot and incubated at 35-37° C. for 72 hours or more. Growth of P. acnes was then observed and compared to control plates in which no compound has been added, and positive inhibition plates prepared with erythromycin. […] The growth of P. acnes in the presence of nicotinamide, benzoyl peroxide, adapalene, metronidazole, DGLA, 15-OHEPA, and 15-HETrE was determined with varying concentrations of the compound (see, Table 2). Next, the MIC was determined as the concentration at which a marked reduction (+) occurs in the appearance of growth on the test plate (as per Clinical and Laboratory Standards Institute M11-A7).

[2] = system: P. acnes; experiment: Agar dilution method: growth of P. acnes and MIC, fatty acid compounds in combination with other compounds; assay type: cell-based, Propionibacterium acnes
Method: as §1, with “M11-A7). The compounds tested singly in Example 1 were tested in combination with one another to determine the capacity of the combination to inhibit the growth of P. acnes. In an exemplary method, the MIC was determined for each of the combination as described in Example 1. Briefly, test combinations included DGLA with nicotinamide, benzoyl peroxide, adapalene, or metronidazole; 15-HETrE with nicotinamide, benzoyl peroxide, adapalene, or metronidazole; and 15-OHEPA with nicotinamide, benzoyl peroxide, adapalene, or metronidazole. The tables below show the growth of P. acnes in the presence of 0.4 or 1.0 mg/mL DGLA with varying concentrations of nicotinamide, benzoyl peroxide, adapalene, or metronidazole (Table 3); the growth of P. acnes in the presence of 0.01 or 0.05 mg/mL 15-HETrE with varying concentrations of nicotinamide, benzoyl peroxide, adapalene, or metronidazole (Table 5); and the growth of P. acnes in the presence of 0.5 or 0.1 mg/mL 15-OHEPA with varying concentrations of nicotinamide, benzoyl peroxide, adapalene, or metronidazole (Table 7).” for “M11-A7).”

[3] = compound at 0.00001 mg/mL in agar
[4] = compound at 0.0001 mg/mL in agar
[5] = compound at 0.001 mg/mL in agar
[6] = Cutibacterium acnes, MIC = concentration with marked reduction (+) of growth, read-out: MIC (mg/mL) as per P-11-0007 or P-11-0008 Addendum A
[7] = compound at 0.010 mg/mL in agar
[8] = compound at 0.025 mg/mL in agar
[9] = compound at 0.050 mg/mL in agar
[10] = compound at 0.075 mg/mL in agar

Structure (SMILES): CCCCCC(O)/C=C/C=C\C/C=C\CCCCCCC(=O)O (stereo not drawn) [15-HETrE, 15-Hydroxy-eicosa-8(Z),11(Z),13(E)-trienoic acid]
effect on growth of P. acnes on its own ([1]; 0.01 mg/ml): no effect on its own | Growth Index (+++, ++, +, −) Avg [1, 3]: +++ | Growth Index (+++, ++, +, −) Plate 1 [1, 3]: +++ | Growth Index (+++, ++, +, −) Plate 2 [1, 3]: +++ | Growth Index (+++, ++, +, −) Plate 3 [1, 3]: +++ | Growth Index (+++, ++, +, −) Avg [1, 4]: +++ | Growth Index (+++, ++, +, −) Plate 1 [1, 4]: +++ | Growth Index (+++, ++, +, −) Plate 2 [1, 4]: +++ | Growth Index (+++, ++, +, −) Plate 3 [1, 4]: +++ | Growth Index (+++, ++, +, −) Avg [1, 5]: +++ | Growth Index (+++, ++, +, −) Plate 1 [1, 5]: +++ | Growth Index (+++, ++, +, −) Plate 2 [1, 5]: +++ | Growth Index (+++, ++, +, −) Plate 3 [1, 5]: +++ | Growth Index (+++, ++, +, −) Avg ([1]; compound at 0.01 mg/mL in agar): ++ | Growth Index (+++, ++, +, −) Plate 1 ([1]; compound at 0.01 mg/mL in agar): ++ | Growth Index (+++, ++, +, −) Plate 2 ([1]; compound at 0.01 mg/mL in agar): +++ | Growth Index (+++, ++, +, −) Plate 3 ([1]; compound at 0.01 mg/mL in agar): ++

MIC [1, 6]: 0.05 to 0.075 mg/mL (≈ 157 to 236 µM)
Structure (SMILES): CCC=CCC(O)C=CC=CCC=CCC=CCCCC(=O)O (stereo not drawn) [15-OHEPA, 15-Hydroxy-eicosa-5,8,11,13,17-pentaenoic acid]
effect on growth of P. acnes on its own ([1]; 0.05 mg/mL): no effect on its own | Growth Index (+++, ++, +, −) Avg [1, 7]: +++ | Growth Index (+++, ++, +, −) Plate 1 [1, 7]: +++ | Growth Index (+++, ++, +, −) Plate 2 [1, 7]: +++ | Growth Index (+++, ++, +, −) Plate 3 [1, 7]: +++ | Growth Index (+++, ++, +, −) Avg [1, 8]: +++ | Growth Index (+++, ++, +, −) Plate 1 [1, 8]: +++ | Growth Index (+++, ++, +, −) Plate 2 [1, 8]: +++ | Growth Index (+++, ++, +, −) Plate 3 [1, 8]: +++ | Growth Index (+++, ++, +, −) Avg [1, 9]: +++ | Growth Index (+++, ++, +, −) Plate 1 [1, 9]: +++ | Growth Index (+++, ++, +, −) Plate 2 [1, 9]: +++ | Growth Index (+++, ++, +, −) Plate 3 [1, 9]: +++ | Growth Index (+++, ++, +, −) Avg [1, 10]: + | Growth Index (+++, ++, +, −) Plate 1 [1, 10]: + | Growth Index (+++, ++, +, −) Plate 2 [1, 10]: + | Growth Index (+++, ++, +, −) Plate 3 [1, 10]: +

MIC (mg/mL) with 0.05 mg/mL 15-HETrE spike ([2]; 0.05 mg/mL 15-HETrE spike, itself an inhibitory concentration): <0.2 mg/mL | MIC (mg/mL) with 0.05 mg/mL 15-OHEPA spike ([2]; 0.05 mg/mL 15-OHEPA spike): >0.8 mg/mL | MIC (mg/mL) with 0.1 mg/mL 15-OHEPA spike ([2]; 0.1 mg/mL 15-OHEPA spike, itself an inhibitory concentration): <0.2 mg/mL | MIC (mg/mL) with 0.4 mg/mL dGLA spike ([2]; 0.4 mg/mL dGLA spike, dGLA supplied by Sigma, cat# E4504): >0.6* mg/mL | MIC (mg/mL) with 1.0 mg/mL dGLA spike ([2]; 1.0 mg/mL dGLA spike, dGLA supplied by Cayman, cat# 90230): >0.6* mg/mL | MIC [1, 6]: > 0.8 mg/mL | MIC ([1]; no unit in the sentence): > 0.8
Structure (SMILES): COc1ccc(-c2ccc3cc(C(=O)O)ccc3c2)cc1C12CC3CC(CC(C3)C1)C2 [Adapalene, 6-[3-(1-adamantyl)-4-methoxyphenyl]-2-naphthoic acid]
growth of P. acnes in combination with 15-OHEPA compared with 15-OHEPA alone ([2]; in combination with 15-OHEPA): did not reduce the growth of P. Acnes below that of 15 OHEPA used alone | growth of P. acnes in combination with DGLA compared with DGLA alone ([2]; in combination with DGLA): did not reduce the growth of P. Acnes below that of DGLA used alone | Growth Index (+++, ++, +, −) Avg ([1]; compound at 0.2 mg/mL in agar): +++ | Growth Index (+++, ++, +, −) Plate 1 ([1]; compound at 0.2 mg/mL in agar): +++ | Growth Index (+++, ++, +, −) Plate 2 ([1]; compound at 0.2 mg/mL in agar): +++ | Growth Index (+++, ++, +, −) Plate 3 ([1]; compound at 0.2 mg/mL in agar): +++ | Growth Index (+++, ++, +, −) Avg ([1]; compound at 0.4 mg/mL in agar): +++ | Growth Index (+++, ++, +, −) Plate 1 ([1]; compound at 0.4 mg/mL in agar): +++ | Growth Index (+++, ++, +, −) Plate 2 ([1]; compound at 0.4 mg/mL in agar): +++ | Growth Index (+++, ++, +, −) Plate 3 ([1]; compound at 0.4 mg/mL in agar): +++ | Growth Index (+++, ++, +, −) Avg ([1]; compound at 0.6 mg/mL in agar): ++ | Growth Index (+++, ++, +, −) Plate 1 ([1]; compound at 0.6 mg/mL in agar): ++ | Growth Index (+++, ++, +, −) Plate 2 ([1]; compound at 0.6 mg/mL in agar): ++ | Growth Index (+++, ++, +, −) Plate 3 ([1]; compound at 0.6 mg/mL in agar): +++ | Growth Index (+++, ++, +, −) Avg ([1]; compound at 0.8 mg/mL in agar): ++ | Growth Index (+++, ++, +, −) Plate 1 ([1]; compound at 0.8 mg/mL in agar): ++ | Growth Index (+++, ++, +, −) Plate 2 ([1]; compound at 0.8 mg/mL in agar): ++ | Growth Index (+++, ++, +, −) Plate 3 ([1]; compound at 0.8 mg/mL in agar): ++
